The MIC is the smallest concentration in the dilution series that meets the test's criterion for growth inhibition. Read a low MIC as greater potency.

Here are results for twelve compounds from ChEMBL document CHEMBL3297661, “1-Substituted-5-[(3,5-dinitrobenzyl)sulfanyl]-1H-tetrazoles and their isosteric analogs: A new class of selective antitubercular agents active against drug-susceptible and multidrug-resistant mycobacteria” (Eur J Med Chem, 2014).

Values after ≈ are worked out from the molar mass of the structure shown. A value given as a limit tells only on which side of the number the result lay.

Format in all cases: functional
The subject of assay [1] is Mycobacterium tuberculosis. Put plainly: Antimycobacterial activity against multidrug-resistant Mycobacterium tuberculosis 234/2005 after 7 days by micromethod.
For assay [2], the system named is Mycobacterium tuberculosis. Put plainly: Antimycobacterial activity against multidrug-resistant Mycobacterium tuberculosis Praha 4 after 7 days by micromethod.
For assay [3], the system named is Mycobacterium tuberculosis. The assay can be described thus: Antimycobacterial activity against multidrug-resistant Mycobacterium tuberculosis Praha 131 after 7 days by micromethod.
In assay [4] the test system is Mycobacterium tuberculosis. The assay can be described thus: Antimycobacterial activity against multidrug-resistant Mycobacterium tuberculosis Praha 1 after 7 days by micromethod.
The subject of assay [5] is Mycobacterium tuberculosis. The assay can be described thus: Antimycobacterial activity against multidrug-resistant Mycobacterium tuberculosis 8666/2010 after 7 days by micromethod.
Assay [6] relates to Mycobacterium tuberculosis. Put plainly: Antimycobacterial activity against multidrug-resistant Mycobacterium tuberculosis 9449/2007 after 7 days by micromethod.
For assay [7], the system named is Mycobacterium tuberculosis. The assay can be described thus: Antimycobacterial activity against multidrug-resistant Mycobacterium tuberculosis 234/2005 after 14 days by micromethod. Conditions: 234/2005, 336 h.
Assay [8] relates to Mycobacterium tuberculosis. The assay can be described thus: Antimycobacterial activity against multidrug-resistant Mycobacterium tuberculosis Praha 1 after 14 days by micromethod. Conditions: Praha 1, 336 h.
For assay [9], the system named is Mycobacterium tuberculosis. Put plainly: Antimycobacterial activity against multidrug-resistant Mycobacterium tuberculosis Praha 4 after 14 days by micromethod. The settings on record: Praha 4, 336 h.
Assay [10] deals with Mycobacterium tuberculosis. Put plainly: Antimycobacterial activity against multidrug-resistant Mycobacterium tuberculosis 9449/2007 after 14 days by micromethod. The settings on record: 9449/2007, 336 h.
Assay [11] has as its system Mycobacterium tuberculosis. The assay can be described thus: Antimycobacterial activity against multidrug-resistant Mycobacterium tuberculosis 8666/2010 after 14 days by micromethod. The settings on record: 8666/2010, 336 h.
The test system of assay [12] is Mycobacterium tuberculosis. The assay can be described thus: Antimycobacterial activity against multidrug-resistant Mycobacterium tuberculosis Praha 131 after 14 days by micromethod. Conditions: Praha 131, 336 h.

Consider `NCC[C@H](O)C(=O)N[C@@H]1C[C@H](N)[C@@H](O[C@H]2O[C@H](CN)[C@@H](O)[C@H](O)[C@H]2O)[C@H](O)[C@H]1O[C@H]1O[C@H](CO)[C@@H](O)[C@H](N)[C@H]1O` [AMIKACIN], for which the MIC was 32 µM (≈ 18.7 µg/mL) in assay [1] (234/2005, 168 h); 0.5 µM (≈ 0.293 µg/mL) in assay [2] (Praha 4, 168 h); more than 32 µM in assay [3] (Praha 131, 168 h); 2 µM (≈ 1.17 µg/mL) in assay [4] (Praha 1, 168 h); more than 8 µM in assay [5] (8666/2010, 168 h); 32 µM (≈ 18.7 µg/mL) in assay [6] (9449/2007, 168 h).

Regarding `CN[C@@H]1[C@H](O[C@H]2[C@H](O[C@H]3[C@H](O)[C@@H](O)[C@H](N=C(N)N)[C@@H](O)[C@@H]3N=C(N)N)O[C@@H](C)[C@]2(O)C=O)O[C@@H](CO)[C@H](O)[C@H]1O` [STREPTOMYCIN], the MIC worked out at 32 µM (≈ 18.6 µg/mL) in assay [1] (234/2005, 168 h); 1 µM (≈ 0.582 µg/mL) in assay [2] (Praha 4, 168 h); 0.5 µM (≈ 0.291 µg/mL) in assay [3] (Praha 131, 168 h); 0.5 µM (≈ 0.291 µg/mL) in assay [4] (Praha 1, 168 h); 16 µM (≈ 9.31 µg/mL) in assay [5] (8666/2010, 168 h); 64 µM (≈ 37.2 µg/mL) in [6] (9449/2007, 168 h).

Take `O=[N+]([O-])c1cc(C[Se]c2nnnn2C2CCCCC2)cc([N+](=O)[O-])c1`: the MIC in assay [1] (234/2005, 168 h) came to 1 µM (≈ 0.411 µg/mL); in assay [2] (Praha 4, 168 h), 1 µM (≈ 0.411 µg/mL); in assay [7], 0.5 µM (≈ 0.206 µg/mL); in [3] (Praha 131, 168 h), 1 µM (≈ 0.411 µg/mL); in assay [4] (Praha 1, 168 h), 1 µM (≈ 0.411 µg/mL); in [8], 0.5 µM (≈ 0.206 µg/mL). In addition, the MIC in [9] was found to be 0.5 µM (≈ 0.206 µg/mL); in assay [10], 0.5 µM (≈ 0.206 µg/mL); in assay [11] it was 0.5 µM (≈ 0.206 µg/mL); in assay [5] (8666/2010, 168 h), 0.5 µM (≈ 0.206 µg/mL); in [6] (9449/2007, 168 h) it was 1 µM (≈ 0.411 µg/mL); in assay [12], 0.5 µM (≈ 0.206 µg/mL).

In the case of `NNC(=O)c1ccncc1` [ISONIAZID], the MIC in [1] (234/2005, 168 h) is more than 32 µM; in assay [2] (Praha 4, 168 h), 1 µM (≈ 0.137 µg/mL); in assay [3] (Praha 131, 168 h) it was 0.25 µM (≈ 0.0343 µg/mL); in assay [4] (Praha 1, 168 h), 8 µM (≈ 1.1 µg/mL); in assay [5] (8666/2010, 168 h), 32 µM (≈ 4.39 µg/mL); in [6] (9449/2007, 168 h), 16 µM (≈ 2.19 µg/mL).

As to `CCCCCCn1nnnc1[Se]Cc1cc([N+](=O)[O-])cc([N+](=O)[O-])c1`, the MIC is 1 µM (≈ 0.413 µg/mL) in assay [1] (234/2005, 168 h); 1 µM (≈ 0.413 µg/mL) in [2] (Praha 4, 168 h); 0.5 µM (≈ 0.207 µg/mL) in assay [7]; 1 µM (≈ 0.413 µg/mL) in assay [3] (Praha 131, 168 h); 1 µM (≈ 0.413 µg/mL) in assay [4] (Praha 1, 168 h); 0.5 µM (≈ 0.207 µg/mL) in assay [8]. Moreover, the MIC stood at 0.5 µM (≈ 0.207 µg/mL) in [9]; 0.5 µM (≈ 0.207 µg/mL) in assay [10]; 0.25 µM (≈ 0.103 µg/mL) in [11]; 0.5 µM (≈ 0.207 µg/mL) in [5] (8666/2010, 168 h); 1 µM (≈ 0.413 µg/mL) in assay [6] (9449/2007, 168 h); 0.5 µM (≈ 0.207 µg/mL) in assay [12].

Take GENTAMICIN: the MIC in [1] is more than 32 µM; in assay [2], 2 µM; in [3] it was 0.5 µM; in [4] it was 16 µM; in assay [5], more than 8 µM; in assay [6], 16 µM.

On to `CC[C@@H](CO)NCCN[C@@H](CC)CO` [ETHAMBUTOL], for which the MIC in assay [1] (234/2005, 168 h) was more than 32 µM; in [2] (Praha 4, 168 h), 0.5 µM (≈ 0.102 µg/mL); in assay [3] (Praha 131, 168 h), 0.5 µM (≈ 0.102 µg/mL); in assay [4] (Praha 1, 168 h), 2 µM (≈ 0.409 µg/mL); in assay [5] (8666/2010, 168 h) it was more than 8 µM; in assay [6] (9449/2007, 168 h) it was 16 µM (≈ 3.27 µg/mL).

On to `O=[N+]([O-])c1cc(CSc2nnnn2C2CCCCC2)cc([N+](=O)[O-])c1`, for which the minimum inhibitory concentration (MIC) in [1] (234/2005, 168 h) came to 1 µM (≈ 0.364 µg/mL); in assay [2] (Praha 4, 168 h) it was 1 µM (≈ 0.364 µg/mL); in assay [7], 0.5 µM (≈ 0.182 µg/mL); in assay [3] (Praha 131, 168 h), 1 µM (≈ 0.364 µg/mL); in assay [4] (Praha 1, 168 h), 1 µM (≈ 0.364 µg/mL); in [8] it was 1 µM (≈ 0.364 µg/mL). Besides, the MIC in [9] was determined as 0.5 µM (≈ 0.182 µg/mL); in assay [10] it was 1 µM (≈ 0.364 µg/mL); in assay [11] it was 0.5 µM (≈ 0.182 µg/mL); in assay [5] (8666/2010, 168 h), 0.5 µM (≈ 0.182 µg/mL); in [6] (9449/2007, 168 h), 1 µM (≈ 0.364 µg/mL); in [12], 1 µM (≈ 0.364 µg/mL).

As for `CC1COc2c(N3CCN(C)CC3)c(F)cc3c(=O)c(C(=O)O)cn1c23` (stereo unspecified) [OFLOXACIN], the MIC in assay [1] (234/2005, 168 h) was more than 32 µM; in assay [2] (Praha 4, 168 h) it was 0.125 µM (≈ 0.0452 µg/mL); in assay [3] (Praha 131, 168 h), 0.5 µM (≈ 0.181 µg/mL); in [4] (Praha 1, 168 h) it was more than 16 µM; in assay [5] (8666/2010, 168 h), more than 8 µM; in assay [6] (9449/2007, 168 h) it was 16 µM (≈ 5.78 µg/mL).

For the compound `CC(C)/N=c1\cc2n(-c3ccc(Cl)cc3)c3ccccc3nc-2cc1Nc1ccc(Cl)cc1` [CLOFAZIMINE], the MIC in assay [1] (234/2005, 168 h) is 16 µM (≈ 7.57 µg/mL); in assay [2] (Praha 4, 168 h) it was 0.125 µM (≈ 0.0592 µg/mL); in assay [3] (Praha 131, 168 h) it was 1 µM (≈ 0.473 µg/mL); in [4] (Praha 1, 168 h) it was 0.25 µM (≈ 0.118 µg/mL); in [5] (8666/2010, 168 h), more than 8 µM; in [6] (9449/2007, 168 h), 8 µM (≈ 3.79 µg/mL).

`COc1ccc(-n2nnnc2[Se]Cc2cc([N+](=O)[O-])cc([N+](=O)[O-])c2)cc1`: the MIC in assay [1] (234/2005, 168 h) worked out at 1 µM (≈ 0.435 µg/mL); in [2] (Praha 4, 168 h), 1 µM (≈ 0.435 µg/mL); in assay [7], 1 µM (≈ 0.435 µg/mL); in assay [3] (Praha 131, 168 h), 1 µM (≈ 0.435 µg/mL); in assay [4] (Praha 1, 168 h), 1 µM (≈ 0.435 µg/mL); in assay [8], 0.5 µM (≈ 0.218 µg/mL). In addition, the minimal inhibitory concentration (MIC) in assay [9] is 0.5 µM (≈ 0.218 µg/mL); in assay [10] it was 1 µM (≈ 0.435 µg/mL); in assay [11], 0.5 µM (≈ 0.218 µg/mL); in assay [5] (8666/2010, 168 h) it was 0.5 µM (≈ 0.218 µg/mL); in [6] (9449/2007, 168 h), 1 µM (≈ 0.435 µg/mL); in [12], 1 µM (≈ 0.435 µg/mL).

With `CO[C@H]1/C=C/O[C@@]2(C)Oc3c(C)c(O)c4c(O)c(c(/C=N/N5CCN(C)CC5)c(O)c4c3C2=O)NC(=O)/C(C)=C\C=C\[C@H](C)[C@H](O)[C@@H](C)[C@@H](O)[C@@H](C)[C@H](OC(C)=O)[C@@H]1C` [RIFAMPIN], the MIC was 16 µM (≈ 13.2 µg/mL) in assay [1] (234/2005, 168 h); more than 8 µM in assay [2] (Praha 4, 168 h); 2 µM (≈ 1.65 µg/mL) in assay [3] (Praha 131, 168 h); 1 µM (≈ 0.823 µg/mL) in [4] (Praha 1, 168 h); more than 8 µM in [5] (8666/2010, 168 h); 16 µM (≈ 13.2 µg/mL) in assay [6] (9449/2007, 168 h).
